Results taken from patent US8686021B2, “Use of a benzoyl derivative of 3-aminocarbazole for the treatment of a disorder associated with the production of prostaglandin E2 (PGE2)” (Aziende Chimiche Riunite Angelini Francesco A.C.R.A.F. …, priority 2005, dated 2014).

Experiments:
[1] = tested on: production of PGE2; test: In-vitro activity test: inhibition of PGE2 production in IL-1β-stimulated A549 cells; assay type: cell-based, human; settings: 18 hours
Source text: (§1) This test is used to evaluate capability to inhibit the production of PGE2 and selectivity with respect to the production of PGF2, for each of the compounds under examination.
(§2) Cell line A549, human lung adenocarcinoma, which is particularly sensitive to stimulation with proinflammatory cytokines such as IL-1β, and, in response to that stimulation, particularly active in the production and release of two prostanoids: PGE2 and PGF2α (Thoren S., Jakobsson P. J. “Coordinate up- and down-regulation of glutathione-dependent prostaglandin E synthase and cyclooxygenase-2 in A549 cells. Inhibition by NS-398 and leukotriene C4”, Eur. J. Biochem. 2000, 267(21):6428-6434)) was used.
(§3) The cells were stimulated with IL-1β (1 ng/ml) and at the same time treated with the compounds under test for 18 hours in an appropriate culture medium (DMEM—Dulbecco's Modified Eagles Medium) enriched with 5% bovine foetal serum and L-glutamine (4 mM final) in an incubator at 37° C. and with a CO2 concentration of 5%.
(§4) After incubation the quantities of PGE2 and PGF2α produced and released into the supernatant were determined using an EIA kit (manufactured and marketed by Cayman Chemicals, Ann Arbor, Mich., USA).
(§5) The results, shown in Table 3, are expressed as percentage inhibition of the production of PGE2 and PGF2α at a concentration of […].

[2] = tested on: production of PGF2α; test: In-vitro activity test: inhibition of PGF2α production in IL-1β-stimulated A549 cells; assay type: cell-based, human; settings: 18 hours
Source text: as §1, §2, §3, §4, §5

[3] = tested on: production of PGI2; test: Test on human primary endothelial cells (HUVEC): secretion of PGI2; assay type: cell-based
Experimental: This test is used to evaluate the ability of the compounds in Table 2 to inhibit the production of PGI2.
The absence of inhibitory activity on these prostanoids may ensure that the vasoprotective action of PGI2 is maintained and provides useful pharmacological information about the absence of adverse effects on the endothelium.
Compound 1 was used in the test.
The action of the compound under test was evaluated in HUVEC cells under basal and stimulation conditions (J. Immunol. 1989 Jun. 1; 142(11):3993-9).
The results are shown in Table 6 and are expressed as percentage inhibition in comparison with control enzyme activity.
Indomethacin was used as the reference compound.

[4] = tested on: pained behaviour induced by acetic acid in mice; test: In-vivo activity test: acetic acid-induced stretching (nociceptive test of inflammatory origin) in mice; settings: female CD-1 mice; 30 mg/kg orally in methyl cellulose (MTC), 1 hour before acetic acid i.p.; mean±SD; vehicle MTC 58 ± 5
Experimental: This test makes it possible to evaluate the activity of the compounds according to this invention in a nociceptive test of inflammatory origin. Compound 1 was used for this purpose in an experimental model which provokes pained behaviour induced by acetic acid in mice (Stock, J. L. et al., J. Clin. Inv. 2001, 107:325-331). Female CD-1 mice weighing 25-30 g were used for the test.
The animals were treated orally with compound 1 (30 mg/kg) suspended in methyl cellulose (MTC). The control animals were treated with the vehicle (MTC) alone, orally.
One hour after treatment acetic acid (0.7% v/v in physiological solution, 16 μl/g of body weight) was injected into the animals intraperitoneally to induce inflammatory pain and check the effects of the treatment on the nociceptive response.
The number of stretches, which represents the evaluation parameter for the nociceptive response, was measured immediately after the administration of acetic acid and for the next 20 minutes.

[5] = 10 μM, A549 cells stimulated with IL-1β (1 ng/ml), EIA kit
[6] = A549 cells stimulated with IL-1β
[7] = Homo sapiens, 10 μM, A549 cells stimulated with IL-1β (1 ng/ml), EIA kit

SMILES | % inhibition at 10 μM PGE2 [1, 5] | % inhibition at 10 μM PGF2α [2, 5] | pIC50 PGE2 [1, 6] | pIC50 PGF2α [2, 6] | also measured
CCn1c2ccccc2c2cc(NC(=O)c3ccccc3OC)ccc21 [A, reference compound] | 98% | 95% | – | – | –
CCn1c2ccccc2c2cc(NC(=O)c3ccccc3)ccc21 [B, reference compound] | 46% | 40% | – | – | –
CCn1c2ccccc2c2cc(NC(=O)c3c(Cl)cccc3Cl)ccc21 [Compound 6] | 89% | 51% | – | – | –
CCn1c2ccccc2c2cc(NC(=O)c3cc([N+](=O)[O-])ccc3Cl)ccc21 [Compound 7] | 70% | 0% | – | – | –
CCn1c2ccccc2c2cc(NC(=O)c3ccccc3[N+](=O)[O-])ccc21 [Compound 5] | 27% | 0% | – | – | –
CCn1c2ccccc2c2cc(NC(=O)c3ccccc3Cl)ccc21 [Compound 1] | 82% | 16% | 5.7 | 4.1 | % inhibition, test for the secretion of PGI2, Basal (HUVEC) ([3]; 10 μM, basal conditions): 0%; % inhibition, test for the secretion of PGI2, Stimulated (HUVEC) ([3]; 10 μM, stimulation conditions): 0%; No. stretches in 20 min [4]: 40 ± 5
CCn1c2ccccc2c2cc(NC(=O)c3cc(Cl)ccc3Cl)ccc21 [Compound 8] | 93% | 37% | – | – | –
COc1ccc2c(c1)c(CC(=O)O)c(C)n2C(=O)c1ccc(Cl)cc1 [Indomethacin, reference compound] | – | – | – | – | inhibition at 10 µM ([3]; Homo sapiens, stimulation conditions, read-out: % inhibition, test for the secretion of PGI2, Stimulated (HUVEC)): 100%; inhibition at 10 µM [1, 7]: 100%; IC50 ([1]; Homo sapiens, A549 cells stimulated with IL-1β, read-out: pIC50 PGE2 (converted)): 5.01 nM; inhibition at 10 µM [2, 7]: 100%; IC50 ([2]; Homo sapiens, A549 cells stimulated with IL-1β, read-out: pIC50 PGF2α (converted)): 2.51 nM
CCn1c2ccccc2c2cc(NC(=O)c3ccc(C)cc3)ccc21 [C, reference compound] | 43% | 49% | – | – | –
CCn1c2ccccc2c2cc(NC(=O)c3ccccc3Br)ccc21 [Compound 3] | 81% | 0% | 5.5 | <4 | –
CCn1c2ccccc2c2cc(NC(=O)c3ccccc3I)ccc21 [Compound 4] | 84% | 0% | 5.4 | <4 | –
CCn1c2ccccc2c2cc(NC(=O)c3ccccc3C)ccc21 [Compound 2] | 83% | 44% | 5.3 | 4.3 | –
